The test system of one series is rat leukemia L 5222. In words: Chemotherapeutic activity against rat Leukemia L5222. Format: in vivo, rat (BD IX rats). As for the experimental part: Chemotherapeutic activity of methylformylamino-CNU against rat Leukemia L5222 (CNU=chloroethyl-nitroso-urea)
The compound to be tested was solved in Chremophor EL/ethanol/physiological saline and a single dose was administered intraperitoneally into tumor inoculated BD IX rats. The experiment involved an untreated control group and a number of treated groups. The doses used and the effects of the praeterminal treatment are summarized in the following Table from which the cures (animals free of tumor after 120 days) and the increase in life span (ILS, expressed as percentage of survival of the treated test group to the untreated control group) are evident.
Considering the fact that the true measure of the effectiveness of a drug against a neoplastic desease is the ability of the drug to kill the neoplastic cells at dosages that are not toxic to the host animal and that a quantitative evaluation of drug action is usually obtained by using the L1210 leucemia system in mice, it will be realized that in this test the tumor cells are injected into the peritoneal cavity of a mouse which thereafter is treated with the drug to be tested at a very early time after the inoculation of the tumor, i.e. at the first or second day after tumor inoculation. Thus such screening is done under very favourable test conditions for the drug. Contrary thereto the administration of the drug to be tested is performed relatively late in the case of the rat leucemia L5222, i.e. at the 8th day after tumor inoculation. It must, therefore, be taken that at that time tumor cells have colonized the cerebral region, i.e. the meninges, so that cures can only be obtained if the drug has an activity high enough to kill the leucemia cells in the cerebral region in a praeterminal state. Thus by far more severe test conditions are involved when treating rat leucemia L5222 or type Yoshida sarcoma which is a tumor model and which are hard to influence by known drugs.

In the next series the test system is Yoshida sarcoma. It counts as in vivo, rat (male Sprague-Dawley rats). The note with it: for M = median survival time: i.p. day 8. How it is done: The chemotherapeutic activity of nitrosoureas was compared in antitumor tests using Yoshida sarcoma ascited cells implanted into the wall of the descending colon in Sprague-Dawley rats.
(§1) Male Sprague-Dawley rats were used in the experiments. Yoshida sarcome in ascites form was maintained in the same strain of rats by serial intraperitoneal injection of 0,5 ml of ascites fluid.
(§2) 3×10^6 cells were injected into the colon wall in a manner known per se. The chemotherapeutic treatment was carried out on the eighth day after implantation of the tumor cells.
(§3) Water-insoluble compounds were dissolved in Cremophor EL/ethanol/physiological saline (20:20:60: vol.%). Water-soluble substances were dissolved in physiological saline. Cremophor EL is a surfactant on the basis of polyethoxylated castor oil. All test compounds were administered introperitoneally. The nitrosoureas were applied at approximately equitoxic doses corresponding to about 80% of the acute LD50 values observed in healthy rats of the same strain over a 28-day observation period.
Each experiment involved an untreated control group and a varying number of treated groups. Individual survival times were counted as days after tumor inoculation. At the time of death a record of whether an animal was tumor-free or not was made. All animals alive 120 days after tumor inoculation were killed. Animals that according to macroscopic examination had no tumor at the end of the experiment were considered as cured. Since in a number of control rats also no tumors occurred after 120 days the differences in cures between controls and treated animals rather than absolute numbers are reported. Differences in survival were evaluated statistically by individual comparisons between treated rats and controls using a nonparametric log-rank test (Kalbfleisch and Prentice, The statistical analysis of failure time data, Wiley, New York, 1979). Numerical evaluation was performed using a computerized system.

Series [1] in a line: Mean animal weight / weight gain after tumor transplantation. It counts as in vivo, rat (Sprague-Dawley rats). The note with it: CP 70 (exp. 1-3), BCNU 25, MeCCNU 45 (exp. 1), picolyl-3-CNU 25, its HCl 25 (exp. 2), morpholino-CNU 28, piperidino-CNU 15 (exp. 3), dimethylmorpholino-CNU 45 mg/kg (exp. 4); for Mean animal weight on day 50: day 50 after tumor transplantation; for Mean animal weight on day 100: day 100 after tumor transplantation. As for the experimental part:
as §1, §2, §3
In all treated animals and at all doses tested the mean weight gain was lower than in the controls. Table 3 gives the mean animal weights measured 50 and 100 days after tumor transplantation in experiments 1 to 5.

Setting [2] is: single i.p. dose printed 279 mg/kg.
The mark [3] stands for this setting: Experiment 2, CP 70, picolyl-3-CNU 25, picolyl-3-CNU.HCl 25 mg/kg.
Where [4] appears, read: Experiment 2, CP 70, picolyl-3-CNU 25, picolyl-3-CNU.HCl 25 mg/kg, 30 initial animals each.
The mark [5] stands for this setting: Experiment 5, CP 70, picolyl-3-CNU.HCl 25, morpholino-CNU 28, piperidino-CNU 15 mg/kg.
Setting [6] is: Experiment 5, CP 70, picolyl-3-CNU.HCl 25, morpholino-CNU 28, piperidino-CNU 15 mg/kg, 15 initial animals (picolyl-3-CNU.HCl 14).

Counter-ions that a name gives are not always drawn. Like-named read-outs stand apart in the source and are kept apart here.

Turning to `CN(C=O)NC(=O)N(CCCl)N=O` [methylformylamino-CNU, 1-(2-chloroethyl)-1-nitroso-3-(methyl-formyl-amino)urea], in the series with rat leukemia L 5222 (rat, in vivo), the “effectiveness in rat leukemia L 5222 (in words)” value is “active”. Besides, the “ILS (increase in life span)” value with rat leukemia L 5222 (single i.p. dose 7 mg/kg) turned out to be 70%; in the series with rat leukemia L 5222 (single i.p. dose 70 mg/kg), 610%; with rat leukemia L 5222 (single i.p. dose 88 mg/kg), 230%; in the series with rat leukemia L 5222 (single i.p. dose 111 mg/kg) it was 250%; in the series with rat leukemia L 5222 (single i.p. dose 176 mg/kg) it was 40%; with rat leukemia L 5222 (single i.p. dose 11,1 mg/kg), 100%. Also, the “ILS (increase in life span)” value is given as 150% with rat leukemia L 5222 (single i.p. dose 17,6 mg/kg), 150% in the series with rat leukemia L 5222 (single i.p. dose 44,2 mg/kg) and 175% in the series on rat leukemia L 5222 (setting [2]). Also, the “cures (animals free of tumor after 120 days)” value in the series on rat leukemia L 5222 (single i.p. dose 7 mg/kg, 7 mg/kg) was 3/8 and three cured animals out of eight; in the series with rat leukemia L 5222 (single i.p. dose 70 mg/kg) it was 3/9; in the series on rat leukemia L 5222 (single i.p. dose 88 mg/kg), 2/6; with rat leukemia L 5222 (single i.p. dose 11,1 mg/kg), 2/8; with rat leukemia L 5222 (single i.p. dose 17,6 mg/kg) it was 2/8; with rat leukemia L 5222 (single i.p. dose 44,2 mg/kg), 2/8. For the same compound, the “cures (animals free of tumor after 120 days)” value in the series with rat leukemia L 5222 (setting [2]) is listed as 3/8.
In the case of `O=NN(CCCl)C(=O)NCc1cccnc1` [Picolyl-3-CNU, 1-(2-chloroethyl)-1-nitroso-3-(methylene-3-pyridyl)-urea], in “Water solubility”, the “water solubility (in words)” value is recorded as “water-insoluble”. In the series with Yoshida sarcoma (setting [3]), the “% M (median survival time, untreated control = 100)” value is on record as 130%; the “D1-120 = difference (%) between tf1-120 of treated and untreated animals” value worked out at 1%; the “D120 = difference (%) between tf120 of treated and untreated animals” value (“D120 = difference (%) between tf120” for short) was -2%; the “tf1-120 (%) (tf120 + animals dying of toxicity)” value worked out at 23%. Moreover, in the series with Yoshida sarcoma (setting [3]), the “tf120 (%) (animals surviving day 120 without tumor)” value is 20% and the “M = median survival time” value amounted to 28 days. Further, in the series with Yoshida sarcoma (setting [4]), the “tf1-120, No. (tf120 + animals dying of toxicity)” value is 7 and the “tf120, No. (animals surviving day 120 without tumor)” value was 6. Besides, in series [1], the “Mean animal weight on day 50” value was found to be 250 g and the “Mean animal weight on day 100” value is on record as 250 g.
As for `O=NN(CCCl)C(=O)NCc1cccnc1` [Picolyl-3-CNU.HCl, [1-(2-chloroethyl)-1-nitroso-3-(methylene-3-pyridilium)-ureido]-chloride], the “increase in tumor-free animals (cures) above controls” value in the series with Yoshida sarcoma (120 days, CP (exp. 1-3), BCNU, MeCCNU 45, dimethylmorpholine-CNU 45, piperidino-CNU 15, picolyl-3-CNU.HCl 25 mg/kg) was determined as 15%. Further, in the series with Yoshida sarcoma (setting [3]), the “% M (median survival time, untreated control = 100)” value is on record as 125%; the “D1-120 = difference (%) between tf1-120 of treated and untreated animals” value worked out at 18%; the “D120 = difference (%) between tf120” value is reported as 15%; the “tf1-120 (%) (tf120 + animals dying of toxicity)” value was 40%. Also, in the series with Yoshida sarcoma (setting [3]), the “tf120 (%) (animals surviving day 120 without tumor)” value is on record as 37% and the “M = median survival time” value turned out to be 27 days. Moreover, in the series with Yoshida sarcoma (setting [4]), the “tf1-120, No. (tf120 + animals dying of toxicity)” value is 12 and the “tf120, No. (animals surviving day 120 without tumor)” value came out at 11. Further, in the series with Yoshida sarcoma (setting [5]), the “% M (median survival time, untreated control = 100)” value came out at 150%; the “D1-120 = difference (%) between tf1-120 of treated and untreated animals” value is listed as 0%; the “D120 = difference (%) between tf120” value is 0%; the “M = median survival time” value came out at 15 days. Besides, in the series with Yoshida sarcoma (setting [6]), the “tf1-120, No. (tf120 + animals dying of toxicity)” value is listed as 0 and the “tf120, No. (animals surviving day 120 without tumor)” value is on record as 0. For the same compound, in the series with Yoshida sarcoma (experiments 1-4, MeCCNU 45, morpholino-CNU 28 (exp. 3 and 5), dimethylmorpholine-CNU 45, piperidino-CNU 15, picolyl-3-CNU 25, picolyl-3-CNU.HCl 25 mg/kg), the “effect on survival time / life expectancy (in words)” value is “without resulting in a significant increase in survival”. In addition, in series [1], the “Mean animal weight on day 50” value is listed as 250 g and the “Mean animal weight on day 100” value was determined as 260 g.

For the origin of these results see patent publication US4377687A, “Analogs of 1-(2-chloroethyl)-1-nitroso-3-(cycloheyl)-urea substituted by heterocyclic rings or alkyl radicals” (Stiftung Deutsches Krebsforschungszentrum, priority 1978, dated 1983).
